Series [1] can be described thus: Fluorescence excitation and emission spectrum of the dyes. The format is physicochemical. Conditions: for Em / emission max / Ex Peak / excitation max: solvent not given.
Another series concerns painted cells. Briefly: Cell painting applications. The format is cell-based.
A further series concerns live and dead cells. As to the kind of experiment: Cell viability detection with amine reactive viability dye by flow cytometry. The format is cell-based. Conditions: mix of live and dead cells. The method, then: Pipet 100 uL of prepared cells in biological buffer or media in a reaction vessel such as a tube or microwell plate. Add 100 uL of working solution to 100 uL cell sample; mix well and incubate at the room temperature for 15 minutes. Remove supernatant without disturbing the pellet. Wash the cells with PBS with bovine serum albumin (BSA) (range 0.2-10%) per well; centrifuge plate at 1000 rpm for 5 minutes; remove the supernatant by aspiration without disturbing the cell pellet.
Cells were killed by heat or treated with diamide or staurosporine inducers.
Background: In flow cytometry, cells or beads pass a laser one at a time.

Molecules are shown by their SMILES.

Results on eight molecules are retold here after patent publication US20120088262A1, “CYANINE COMPOUNDS, CONJUGATES AND METHOD OF USE” (Millipore Corporation, priority 2010, published 2012).

In series [1] (in Methanol), `CC(C(=O)O)c1ccc(C[N+]2=C(/C=C/C=C3\Oc4ccccc4N3Cc3ccc(CC(=O)O)cc3)C(C)(C)c3cc(S(=O)(=O)[O-])ccc32)cc1` (stereo not drawn) [Compound No. 11] registered an Em of 541 nm and an Ex of 510 nm. Moreover, in series [1], the “Em / emission max” value stood at 542 nm and the “Ex Peak / excitation max” value is recorded as 510 nm.
In series [1] (in Methanol), `Cc1ccc(CN2/C(=C/C=C/C=C/C3=[N+](Cc4ccc(C)cc4)c4ccccc4C3(C)C)C(C)(C)c3ccccc32)cc1.[Br-]` [Compound No. 19] came in with an Em of 674 nm and an Ex of 650 nm. In series [1], the “Em / emission max” value came out at 674 nm and the “Ex Peak / excitation max” value was determined as 650 nm. Further, in the series on painted cells, the “utility for labeling and painting cells” value was “good utility for labeling and painting cells”. Further, in the series with painted cells (3 h time period), the “retention of dye in painted cells” value is listed as “good retention of dye”. Further, the localization of dye entry with painted cells (microscopy) is listed as “localized intracellularly”.
For `O=C(Cc1ccc(CN2/C(=C/C=C/c3oc4ccccc4[n+]3Cc3ccc(CC(=O)ON4C(=O)CCC4=O)cc3)Oc3ccccc32)cc1)ON1C(=O)CCC1=O.[Br-]` [Compound No. 10], in series [1] (in Methanol), the Em is 508 nm and the Ex was found to be 490 nm. In addition, in series [1], the “Em / emission max” value is 507 nm and the “Ex Peak / excitation max” value was found to be 489 nm.
The corresponding values for `O=C(O)Cc1ccc(CN2/C(=C/C=C/c3oc4ccccc4[n+]3Cc3ccc(CC(=O)O)cc3)Oc3ccccc32)cc1.[Br-]` [Compound No. 9] are 507 nm, 489 nm, 507 nm and 489 nm.
Turning to `Cc1ccc(CN2/C(=C/C=C/C3=[N+](Cc4ccc(C)cc4)c4ccccc4C3(C)C)C(C)(C)c3ccccc32)cc1.[Br-]` [Compound No. 18], in series [1] (in Methanol), the Em came to 574 nm and the Ex was determined as 551 nm. Also, in series [1], the “Em / emission max” value amounted to 574 nm and the “Ex Peak / excitation max” value worked out at 551 nm. Moreover, the “utility for labeling and painting cells” value in the series on painted cells was “good utility for painting cells”.
In series [1] (in Methanol), `CC(C(=O)ON1C(=O)CCC1=O)c1ccc(C[N+]2=C(/C=C/C=C3\Oc4ccccc4N3Cc3ccc(CC(=O)ON4C(=O)CCC4=O)cc3)C(C)(C)c3cc(S(=O)(=O)[O-])ccc32)cc1` (stereo not drawn) [Compound No. 12] gave an Em of 541 nm and an Ex of 510 nm. Besides, in series [1], the “Em / emission max” value came out at 541 nm and the “Ex Peak / excitation max” value is recorded as 510 nm. For the same molecule, the “separation of live and dead cells” value in the series with live and dead cells is “excellent separation of live and dead cells”.
In series [1] (in Methanol), `CC1(C)C(/C=C/C=C/C=C2/N(Cc3ccc(CC(=O)O)cc3)c3ccccc3C2(C)C)=[N+](Cc2ccc(CC(=O)O)cc2)c2ccccc21.[Br-]` [Compound No. 16] came in with an Em of 679 nm and an Ex of 650 nm. In addition, in series [1], the “Em / emission max” value stood at 642 nm and the “Ex Peak / excitation max” value is 609 nm.
Consider `CC1(C)C(/C=C/C=C/C=C2\Oc3ccccc3N2Cc2ccc(CC(=O)ON3C(=O)CCC3=O)cc2)=[N+](Cc2ccc(CC(=O)ON3C(=O)CCC3=O)cc2)c2ccc(S(=O)(=O)[O-])cc21` [Compound No. 14], for which, in series [1] (in Methanol), the Em is 642 nm, the Ex is reported as 609 nm and the absorption max came to 609 nm. In series [1], the “Em / emission max” value is on record as 642 nm and the “Ex Peak / excitation max” value came to 609 nm. In addition, in the series on live and dead cells, the “separation of live and dead cells” value was “can clearly distinguish live (low fluorescence) and dead cells (high fluorescence)”.
